Solubility and intracellular killing data for 1 molecule are collected here from US10471046B2, “Method for treating, preventing, or reducing the risk of skin infection” (Melinta Subsidiary Corp., priority 2014, dated 2019).

Bounds are passed on as bounds.

The nature of series [1]: Approximate solubility in solvents by aliquot addition. The class given is physicochemical. The settings on record: ambient temperature. The procedure:
Solubilities of the radezolid free base and radezolid HCl salt in various solvents were estimated and are shown in Tables 10 and 11, respectively, below. A weighed sample was treated with aliquots of test solvent at ambient temperature. Complete dissolution of the test material was determined by visual inspection. Solubility was estimated based on the total solvent used to provide complete dissolution. The actual solubility may be greater than the approximate solubility calculated because of the use of solvent aliquots that were too large or due to a slow rate of dissolution. […] If complete dissolution was achieved as a result of only one aliquot addition, the solubility is expressed as “greater than.” The approximate solubilities were rounded to the nearest whole number.

In series [2] the test system is intracellular S. aureus (including linezolid-resistant). The following applies: cited from earlier work.

Regarding `CC(=O)NC[C@H]1CN(c2ccc(-c3ccc(CNCc4cnn[nH]4)cc3)c(F)c2)C(=O)O1` [Radezolid, (5S)—N-[3-(2-Fluoro-4′-{[(1H-[1,2,3]triazol-4-ylmethyl)-amino]-methyl}-biphenyl-4-yl)-2-oxo-oxazolidin-5-ylmethyl]-acetamide], the solubility in series [1] (2,2,2-trifluoroethanol (TFE), organic solvent or mixture, thermodynamic from solid, 2,2,2-trifluoroethanol (TFE)) is at least 54000 µg/mL; in series [1] (HFIPA/methanol (1:3 by volume), organic solvent or mixture, thermodynamic from solid, HFIPA/Methanol (1:3 by volume)), below 1000 µg/mL; in series [1] (acetone, organic solvent or mixture, thermodynamic from solid), below 1000 µg/mL; in series [1] (acetonitrile, organic solvent or mixture, thermodynamic from solid), below 1000 µg/mL; in series [1] (dichloromethane, organic solvent or mixture, thermodynamic from solid), below 1000 µg/mL; in series [1] (ethyl acetate, organic solvent or mixture, thermodynamic from solid) it was below 1000 µg/mL. Further, the solubility in series [1] (ethyl ether, organic solvent or mixture, thermodynamic from solid) was below 1000 µg/mL; in series [1] (hexafluoroisopropanol (HFIPA), organic solvent or mixture, thermodynamic from solid), at least 245000 µg/mL; in series [1] (hexamethylphosphoramide, organic solvent or mixture, thermodynamic from solid, Hexamethyl-phosphoramide) it was below 26000 µg/mL; in series [1] (methanol, organic solvent or mixture, thermodynamic from solid), below 1000 µg/mL; in series [1] (tetrahydrofuran (THF), organic solvent or mixture, thermodynamic from solid) it was below 1000 µg/mL; in series [1] (water, thermodynamic from solid), below 1000 µg/mL. Besides, the intracellular killing entry in series [2] is listed as “kills”.
